# Measurements from ChEMBL document CHEMBL1201862, “PubChem BioAssay data set” (2004).
# Active and inactive are the calls of the source.
# Experiments:
# [1] = intracellular Trypanosoma cruzi inhibitors in host cells – cell-based, plate reader, cherry-pick samples, set 3, dose response (AID 651818); assay type: functional;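 further: compounds incubated with infected cells for about four days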
# [2] = viability of uninfected HEp-2 cells – cell-based, HTS, cytotoxicity control for RSV inhibitor project, dose response (AID 2410); assay type: functional; conditions: human respiratory syncytial virus
# [3] = Trypanosoma cruzi growth suppression in host cells – NIH3T3 host cells, beta-gal luminescence, confirmation (AID 2044); assay type: functional, cell-based;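 further: intracellular parasites grown in NIH/3T3 mouse fibroblasts as host cells; luminescent beta-galactosidase reporter signal from transgenic T. cruzi replicating inside host cells; inhibitors lower the luminescence signal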
# [4] = NIH3T3 cell viability loss – ATP luminescence, mouse fibroblasts, counter-screen, dose response (AID 2010); assay type: functional, cell-based;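 further: cells exposed to compound for about 90 hours before reading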
# [5] = blockers of HIV-1 envelope-mediated cell-cell fusion – cherry-pick, dose response (AID 652057); assay type: functional, cell-based
# [6] = viability loss in CEM21 cells – cell-based, CellTiter-Glo luminescence, cherry-picked, cytotoxicity control for viral fusion inhibitor project, dose response (AID 652042); assay type: functional;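 further: potency for signal decrease meaning cytotoxicity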
# [7] = blockers of HIV-1 ZM109 envelope-driven cell-cell fusion – HeLa effector, CEM target cells, luciferase, cherry-pick, dose response (AID 652058); assay type: functional, cell-based;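 further: luciferase signal from HIV-1 Env mediated cell-cell fusion of effector and target cells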
# [8] = off-target signal loss in HeLa-CEM21 co-culture – HeLa F-luc CTL cells, cherry-picked, counter-screen for HIV-1 Env fusion inhibitor project, dose response (AID 652040); assay type: functional, cell-based;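 further: potency for signal decrease marking cytotoxic or nonspecific inhibition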
# Cytochrome P450 3A4 = Cytochrome P450 3A4 (Homo sapiens, UniProt P08684);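 further: CYP3A4 tested as one member of a cytochrome P450 panel screen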
# Chain of Cytochrome P450 3A4 (P08684 whole entry): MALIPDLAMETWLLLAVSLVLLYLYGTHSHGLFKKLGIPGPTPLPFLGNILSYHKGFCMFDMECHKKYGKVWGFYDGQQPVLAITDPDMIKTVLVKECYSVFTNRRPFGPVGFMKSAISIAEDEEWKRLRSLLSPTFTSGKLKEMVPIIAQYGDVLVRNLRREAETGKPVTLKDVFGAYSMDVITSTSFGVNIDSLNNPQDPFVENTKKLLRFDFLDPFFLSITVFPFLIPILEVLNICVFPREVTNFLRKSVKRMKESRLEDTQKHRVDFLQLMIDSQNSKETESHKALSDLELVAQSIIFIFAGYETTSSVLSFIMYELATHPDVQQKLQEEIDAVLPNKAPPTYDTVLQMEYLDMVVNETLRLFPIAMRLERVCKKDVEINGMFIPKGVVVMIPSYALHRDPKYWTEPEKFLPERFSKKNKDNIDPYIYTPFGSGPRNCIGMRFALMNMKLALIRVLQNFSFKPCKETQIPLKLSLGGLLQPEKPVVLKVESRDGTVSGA
# [9] = P. falciparum Dd2 growth inhibitors, dose response, SYBR Green, cherry-picked samples (AID 1159567); assay type: functional, cell-based
# [10] = toxicity to human hepatoma HepG2 cells – cell-based, cherry-picked samples, cytotoxicity control, dose response (AID 1159577); assay type: functional
# cells = assay type: functional
# Protein Tat = biological target: T1, Protein Tat (Human immunodeficiency virus type 1 group M subtype B (isolate HXB2)(HIV-1), UniProt P04608); assay type: functional;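 further: tat binding to TAR RNA read out by fluorescence polarization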
# T1 sequence (P04608 whole entry): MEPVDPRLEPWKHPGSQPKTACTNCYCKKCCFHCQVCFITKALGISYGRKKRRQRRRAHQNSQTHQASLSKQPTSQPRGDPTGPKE
# [11] = viability loss in THP-1 monocytes – THP-1 cells, cytotoxicity control for Vif-APOBEC3G degradation inhibitor project, dose response (AID 1117359); assay type: functional; conditions: THP-1
# Fatty acid synthase [12] = biological target: T2, Fatty acid synthase (Homo sapiens, UniProt P49327); test: inhibition of human FAS-TE enzyme activity – biochemical, endpoint fluorescence intensity, uHTS hits, dose response (AID 624327); assay type: functional;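 further: fluorescence from hydrolysis of an O-methyl fluorescein acyl ester substrate by the enzyme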
# T2 sequence (P49327 whole entry): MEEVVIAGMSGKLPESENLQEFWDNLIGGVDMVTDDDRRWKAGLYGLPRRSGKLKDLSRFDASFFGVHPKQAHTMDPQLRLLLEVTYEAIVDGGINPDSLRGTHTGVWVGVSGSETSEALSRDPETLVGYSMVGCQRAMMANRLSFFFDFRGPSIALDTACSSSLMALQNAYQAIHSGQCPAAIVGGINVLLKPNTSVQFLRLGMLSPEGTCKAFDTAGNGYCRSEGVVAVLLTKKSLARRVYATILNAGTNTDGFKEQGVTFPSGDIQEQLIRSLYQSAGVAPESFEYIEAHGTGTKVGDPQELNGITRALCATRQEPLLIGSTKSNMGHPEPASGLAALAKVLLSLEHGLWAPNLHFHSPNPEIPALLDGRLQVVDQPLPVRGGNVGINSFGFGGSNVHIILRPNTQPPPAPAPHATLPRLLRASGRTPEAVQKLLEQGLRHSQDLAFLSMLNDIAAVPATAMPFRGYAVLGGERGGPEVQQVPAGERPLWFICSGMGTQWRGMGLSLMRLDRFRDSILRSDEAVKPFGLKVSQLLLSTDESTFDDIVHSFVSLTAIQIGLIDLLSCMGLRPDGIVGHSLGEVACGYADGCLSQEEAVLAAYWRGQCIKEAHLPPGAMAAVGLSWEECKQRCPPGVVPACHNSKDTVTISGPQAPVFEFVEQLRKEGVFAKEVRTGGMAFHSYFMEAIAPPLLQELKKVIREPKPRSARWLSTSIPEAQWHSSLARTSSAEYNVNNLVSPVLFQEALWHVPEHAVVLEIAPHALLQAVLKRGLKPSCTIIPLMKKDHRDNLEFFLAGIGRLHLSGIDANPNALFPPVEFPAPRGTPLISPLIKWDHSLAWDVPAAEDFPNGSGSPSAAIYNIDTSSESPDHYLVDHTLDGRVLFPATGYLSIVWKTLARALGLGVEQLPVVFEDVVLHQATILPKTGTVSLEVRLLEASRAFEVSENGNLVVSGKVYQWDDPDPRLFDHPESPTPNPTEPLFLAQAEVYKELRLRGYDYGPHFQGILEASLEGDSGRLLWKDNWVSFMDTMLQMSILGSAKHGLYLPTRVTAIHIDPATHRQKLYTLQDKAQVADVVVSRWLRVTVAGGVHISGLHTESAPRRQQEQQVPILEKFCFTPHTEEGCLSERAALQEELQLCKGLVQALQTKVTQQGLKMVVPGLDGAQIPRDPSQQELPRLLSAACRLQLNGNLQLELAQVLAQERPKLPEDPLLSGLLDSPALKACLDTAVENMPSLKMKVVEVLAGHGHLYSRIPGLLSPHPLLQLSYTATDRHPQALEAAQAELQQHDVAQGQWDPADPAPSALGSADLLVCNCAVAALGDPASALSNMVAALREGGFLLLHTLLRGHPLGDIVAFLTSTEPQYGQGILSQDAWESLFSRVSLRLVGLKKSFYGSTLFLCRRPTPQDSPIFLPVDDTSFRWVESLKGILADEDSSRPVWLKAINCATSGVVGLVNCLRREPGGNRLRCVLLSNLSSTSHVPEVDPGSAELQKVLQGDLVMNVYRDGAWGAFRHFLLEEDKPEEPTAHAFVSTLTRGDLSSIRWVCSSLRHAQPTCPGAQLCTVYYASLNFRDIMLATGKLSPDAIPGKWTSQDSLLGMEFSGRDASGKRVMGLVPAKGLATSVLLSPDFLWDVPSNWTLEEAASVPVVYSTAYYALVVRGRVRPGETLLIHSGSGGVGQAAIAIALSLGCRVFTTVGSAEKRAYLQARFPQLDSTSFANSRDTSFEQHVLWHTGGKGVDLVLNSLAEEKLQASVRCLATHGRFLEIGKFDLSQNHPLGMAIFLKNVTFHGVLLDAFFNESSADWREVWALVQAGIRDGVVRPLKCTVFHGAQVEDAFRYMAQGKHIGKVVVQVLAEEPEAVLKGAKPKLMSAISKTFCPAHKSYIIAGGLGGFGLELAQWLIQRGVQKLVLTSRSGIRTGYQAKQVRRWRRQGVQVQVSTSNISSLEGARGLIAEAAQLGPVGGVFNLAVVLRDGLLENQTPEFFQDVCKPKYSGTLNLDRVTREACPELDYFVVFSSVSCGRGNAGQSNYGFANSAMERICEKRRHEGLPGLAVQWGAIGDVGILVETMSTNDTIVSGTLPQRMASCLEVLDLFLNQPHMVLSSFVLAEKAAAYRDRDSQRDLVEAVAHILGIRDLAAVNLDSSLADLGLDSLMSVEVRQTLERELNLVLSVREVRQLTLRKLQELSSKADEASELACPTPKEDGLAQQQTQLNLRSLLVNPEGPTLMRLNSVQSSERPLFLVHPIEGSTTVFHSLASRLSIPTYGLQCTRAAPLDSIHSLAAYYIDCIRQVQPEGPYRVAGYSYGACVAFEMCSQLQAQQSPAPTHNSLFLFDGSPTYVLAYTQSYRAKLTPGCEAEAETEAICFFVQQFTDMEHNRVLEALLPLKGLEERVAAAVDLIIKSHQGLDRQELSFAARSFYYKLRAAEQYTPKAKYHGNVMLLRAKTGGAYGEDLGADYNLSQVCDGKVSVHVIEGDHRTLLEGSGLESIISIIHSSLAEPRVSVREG
# Fatty acid synthase [13] = biological target: T2, Fatty acid synthase; test: inhibition of human FAS-TE enzyme activity – biochemical, kinetic fluorescence intensity, dose response (AID 624326); assay type: functional;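 further: rate of fluorescence rise from hydrolysis of a fluorogenic O-methyl fluorescein ester substrate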
# [14] = biological target: T3, Endoribonuclease toxin MazF (Escherichia coli K-12, UniProt P0AE70); test: activation of MazEF endoribonuclease cleavage – biochemical, fluorescence, single-stranded RNA substrate, uHTS hits, dose response (AID 588481); assay type: functional
# T3 sequence (P0AE70 whole entry): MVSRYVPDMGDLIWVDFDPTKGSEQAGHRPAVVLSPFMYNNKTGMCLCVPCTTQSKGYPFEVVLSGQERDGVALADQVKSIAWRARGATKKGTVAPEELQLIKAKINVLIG
# [15] = biological target: T3, Endoribonuclease toxin MazF; test: substrate-only fluorescence increase artefacts – biochemical, single-stranded RNase substrate, counter-screen for MazEF activator project, dose response (AID 588502); assay type: functional
# [16] = luciferase reporter signal suppression in cells – H4 neuroglioma cells, luminescence, dose response (AID 1990); assay type: functional, cell-based
# [17] = Luminescence Cell-Based Dose Response HTS to Identify Inhibitors of 5'UTR Stem-Loop Driven Prion Protein mRNA Translation in H4 Neuroglioblastoma Cells. [Related pubchem assays: 1827 (Project Summary), 1813 (Primary HTS)]; assay type: functional
# [18] = alpha-synuclein stem-loop luciferase translation blockers – H4 neuroglioma cells, luminescence, confirmation (AID 1988); assay type: functional, cell-based
# [19] = HEK-293T cell viability reduction – luminescence, B-cell screen hits, cytotoxicity control for BCR NF-kB inhibitor project, dose response (AID 489021); assay type: functional, cell-based;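 further: HEK-293T cells carrying an NF-kB luciferase reporter; cells exposed to compound for about 14 hours before viability readout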
# [20] = biological target: Peroxisome proliferator-activated receptor gamma/Nuclear receptor coactivator 1 (Homo sapiens, UniProt P37231); test: TR-FRET dose response biochemical High Throughput Screening assay for agonists of the steroid receptor coactivator 1 (SRC-1) recruitment by the peroxisome proliferator-activated receptor gamma (PPAR gamma): non-selective agonists. [Related pubchem assays (depositor defined):AID1300, AID1808, AID504735, AID631]; assay type: protein assay
# Chain of Peroxisome proliferator-activated receptor gamma/Nuclear receptor coactivator 1 (P37231 whole entry): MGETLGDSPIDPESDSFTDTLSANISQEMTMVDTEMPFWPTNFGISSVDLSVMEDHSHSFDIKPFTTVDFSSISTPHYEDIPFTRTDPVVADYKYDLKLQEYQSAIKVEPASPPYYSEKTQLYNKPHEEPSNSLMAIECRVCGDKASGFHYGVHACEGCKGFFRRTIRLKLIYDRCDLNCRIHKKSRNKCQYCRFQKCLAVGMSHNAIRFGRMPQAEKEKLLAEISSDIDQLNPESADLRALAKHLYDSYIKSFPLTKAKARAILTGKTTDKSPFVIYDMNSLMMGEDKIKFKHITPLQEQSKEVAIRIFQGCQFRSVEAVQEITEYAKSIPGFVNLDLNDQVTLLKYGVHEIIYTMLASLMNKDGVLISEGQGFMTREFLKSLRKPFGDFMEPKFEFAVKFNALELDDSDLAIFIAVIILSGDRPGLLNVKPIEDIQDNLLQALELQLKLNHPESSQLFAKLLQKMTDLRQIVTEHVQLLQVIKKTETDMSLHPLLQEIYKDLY
# Chain of Peroxisome proliferator-activated receptor gamma/Nuclear receptor coactivator 1 (Q15788 whole entry, further chain): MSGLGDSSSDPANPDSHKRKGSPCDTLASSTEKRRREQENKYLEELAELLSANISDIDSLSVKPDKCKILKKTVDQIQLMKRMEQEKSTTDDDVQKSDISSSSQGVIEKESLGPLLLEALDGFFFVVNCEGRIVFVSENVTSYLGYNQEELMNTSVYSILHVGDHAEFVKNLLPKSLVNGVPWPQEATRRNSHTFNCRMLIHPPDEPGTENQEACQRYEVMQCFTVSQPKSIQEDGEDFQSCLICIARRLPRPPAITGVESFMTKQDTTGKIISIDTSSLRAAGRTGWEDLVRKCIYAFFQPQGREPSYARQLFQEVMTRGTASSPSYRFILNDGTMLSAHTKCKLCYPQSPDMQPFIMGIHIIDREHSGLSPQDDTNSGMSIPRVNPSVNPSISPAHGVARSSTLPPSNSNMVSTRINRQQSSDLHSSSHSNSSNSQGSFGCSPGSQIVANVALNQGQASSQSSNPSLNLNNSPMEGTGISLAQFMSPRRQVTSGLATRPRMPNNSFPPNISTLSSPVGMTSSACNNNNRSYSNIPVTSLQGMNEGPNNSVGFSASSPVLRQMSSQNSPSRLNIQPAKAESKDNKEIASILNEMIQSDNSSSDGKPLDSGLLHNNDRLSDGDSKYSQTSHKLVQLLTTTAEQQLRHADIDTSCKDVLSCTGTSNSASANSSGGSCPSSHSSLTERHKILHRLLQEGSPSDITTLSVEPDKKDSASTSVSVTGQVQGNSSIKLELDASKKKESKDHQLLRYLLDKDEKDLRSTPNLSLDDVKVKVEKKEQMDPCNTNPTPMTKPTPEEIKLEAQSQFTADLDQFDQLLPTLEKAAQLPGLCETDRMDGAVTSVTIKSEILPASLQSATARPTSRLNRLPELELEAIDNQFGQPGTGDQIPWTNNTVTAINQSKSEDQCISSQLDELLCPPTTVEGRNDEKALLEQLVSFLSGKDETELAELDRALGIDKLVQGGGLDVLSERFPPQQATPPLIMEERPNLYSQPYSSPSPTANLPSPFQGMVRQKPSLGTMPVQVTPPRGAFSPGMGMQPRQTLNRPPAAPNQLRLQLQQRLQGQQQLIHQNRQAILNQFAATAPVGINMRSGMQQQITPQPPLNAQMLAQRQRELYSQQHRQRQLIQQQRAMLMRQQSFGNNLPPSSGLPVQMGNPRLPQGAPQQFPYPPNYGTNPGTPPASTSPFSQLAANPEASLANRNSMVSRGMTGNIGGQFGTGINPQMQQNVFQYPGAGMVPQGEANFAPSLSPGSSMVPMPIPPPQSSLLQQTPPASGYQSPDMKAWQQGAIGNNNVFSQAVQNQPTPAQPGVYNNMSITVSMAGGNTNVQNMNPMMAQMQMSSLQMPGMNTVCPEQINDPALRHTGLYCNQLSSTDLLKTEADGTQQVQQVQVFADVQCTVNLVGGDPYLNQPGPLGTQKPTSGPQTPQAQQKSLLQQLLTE
# [21] = biological target: Peroxisome proliferator-activated receptor gamma/Nuclear receptor coactivator 3 (Homo sapiens, UniProt P37231); test: TR-FRET dose response biochemical High Throughput Screening assay for agonists of the steroid receptor coactivator 3 (SRC-3) recruitment by the peroxisome proliferator-activated receptor gamma (PPAR gamma): non-selective agonists. [Related pubchem assays: 1301 (Confirmation screen.), 1048 (Primary screen.)]; assay type: functional
# [22] = biological target: Peroxisome proliferator-activated receptor gamma/Nuclear receptor coactivator 2 (Homo sapiens, UniProt P37231); test: TR-FRET dose response biochemical High Throughput Screening assay for agonists of the steroid receptor coactivator 2 (SRC-2) recruitment by the peroxisome proliferator-activated receptor gamma (PPAR gamma): non-selective agonists. [Related pubchem assays: 1297, 1032 ]; assay type: functional
# [23] = blockers of bursicon-stimulated LGR2 cAMP reporter – cell-based, HEK293, CRE-luciferase reporter, cherry pick, set 2, dose response (AID 743343); assay type: functional;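 further: transfected cells were stimulated with diluted bursicon conditioned medium after compound addition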
# [24] = blockade of melanocortin 4 receptor signaling – cell-based, plate reader, cherry pick, counter-screen for LGR2 antagonist project, dose response (AID 743444); assay type: functional;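 further: transfected HEK 293 cells stimulated with alpha-MSH peptide; potency of inhibitors of the alpha-MSH evoked signal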
# [25] = biological target: Eukaryotic translation initiation factor 4E (Mus musculus, UniProt P63073); test: blockers of eIF4G binding by eIF4E – biochemical, TR-FRET, dose response (AID 855); assay type: functional;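 further: potency for disrupting eIF4E binding to eIF4GI seen as loss of FRET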
# [26] = THP-1 cell cytotoxicity, dose response, cytotoxicity control for non-replicating M. tuberculosis project (AID 489025); assay type: functional
# H9c2 = test: cells; assay type: functional, cell-based; conditions: Rattus norvegicus, H9c2, Myocardium;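 further: confirmatory concentration-response retest of ultra-high-throughput screening hits for modulation of myocardial damage; cell death induced by hydrogen peroxide oxidative stress; compound pretreatment for 60 min then peroxide exposure for 2 h; potency is for protecting the cells against peroxide damage rather than for killing them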
# INS1 = test: INS-1E survival protection against cytokine death – cell-based, luminescence, retest, dose response (AID 449756); assay type: functional; conditions: Rattus norvegicus;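 further: cell death triggered by IL-1 beta plus TNF-alpha plus IFN-gamma mixture; protective hits raise ATP signal compared with cytokine alone wells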
# [27] = reduction of Shn3 3'UTR-driven luciferase in osteoblasts – cell-based, Clone20 osteoblasts, firefly luciferase, cherry-picked, dose response (AID 624132); assay type: functional;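 further: firefly luciferase luminescence from reporter carrying the Shn3 3'UTR in osteoblasts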
# [28] = loss of viability in HepG2 cells – cell-based, CellTiter-Glo, cherry-picked, cytotoxicity control for Shn3 inhibitor project, dose response (AID 624134); assay type: functional
# [29] = non-specific 3'UTR reporter inhibition in Clone20-Shn3RL – cell-based, Renilla luciferase, cherry-picked, counter-screen for Shn3 inhibitor project, dose response (AID 624133); assay type: functional
compound,measurement,setting,value
Cc1noc(C)c1S(=O)(=O)Nc1ccc2c(c1)CC(=O)N([C@@H](C)CO)C[C@@H](C)[C@@H](CN(C)Cc1ccc(C(=O)Nc3ccccc3N)cc1)O2,AC50,[1],2.56 µM (active)
CCOC(=O)C1=C(C)N=C2c3ccccc3C(=O)C2C1c1ccc(Cl)cc1 (centres undefined),CC50,[2],28.7 µM (active)
same,EC50,[3],2.06 µM (active)
same,EC50,[4],29.9 µM (active)
same,AC50,[5],12 µM (active)
same,AC50,[6],55.8 µM (active)
same,AC50,[7],< 0.26 µM (active)
same,AC50,[8],16.9 µM (active)
same,AC50,Cytochrome P450 3A4,inconclusive
C[C@H]1CN([C@@H](C)CO)C(=O)Cc2cc(NC(=O)Nc3ccc4c(c3)OCO4)ccc2O[C@@H]1CN(C)Cc1ccc(C(F)(F)F)cc1,AC50,[1],4.86 µM (active)
C[C@H](CO)N1C[C@H](C)[C@@H](CN(C)Cc2cccnc2)Oc2cc(/C=C/c3ccccc3)ccc2S1(=O)=O,AC50,[9],4.03 µM (active)
same,AC50,[10],> 39 µM (inactive)
CCCn1c(CNc2ccccc2O)nc2ccccc21,IC50,cells,5.79 µM (active)
same,IC50,Protein Tat,> 100 µM (active)
CS(=O)(=O)c1ccc(C(=O)Nc2nc(-c3ccco3)c(-c3ccco3)s2)cc1,CC50,[11],> 40 µM (active)
C=CCn1c(SCc2ccc(Br)cc2F)nc2cc(C(=O)O)ccc2c1=O,IC50,Fatty acid synthase [12],11.4 µM (active)
same,IC50,Fatty acid synthase [13],10.9 µM (active)
COC(=O)c1sc2nc(SCc3cccc(F)c3)n(N)c(=O)c2c1C,EC50,[14],> 99 µM (inactive)
same,EC50,[15],> 99 µM (inactive)
COc1cc(OC)cc(-c2cc3nc(C)c(CCC(=O)NCc4ccccc4)c(C)n3n2)c1,EC50,[16],8.43 µM (active)
same,EC50,[17],9.35 µM (active)
same,EC50,[18],9.84 µM (active)
same,IC50,[19],> 80 µM (inactive)
Cc1nc2ccc([N+](=O)[O-])cc2c(=O)n1Cc1ccc([N+](=O)[O-])cc1,IC50,Fatty acid synthase [12],9.22 µM (active)
same,IC50,Fatty acid synthase [13],8.3 µM (active)
O=C(Nc1ccc(-c2ccccc2)cc1)[C@@H]1[C@@H](CO)[C@@H]2Cn3c(cccc3=O)[C@@H]2N1CC1CCCCC1,AC50,[9],3.64 µM (active)
same,AC50,[10],> 39 µM (inactive)
O=C(NN1C(=O)/C(=C/c2nc3ccccc3[nH]2)SC1=S)c1ccccc1Cl,EC50,[20],25.8 µM (inactive)
same,EC50,[21],> 79.4 µM (not active)
same,EC50,[22],44.5 µM (not active)
C[C@@H]1CN([C@@H](C)CO)C(=O)Cc2cc(NS(=O)(=O)c3ccc(F)cc3)ccc2O[C@@H]1CN(C)S(=O)(=O)c1ccc(Cl)cc1,AC50,[1],3.3 µM (active)
Cc1nc2c(OCCC3CCCCC3)cccn2c1N(C)C(=O)CCC1CCCC1,AC50,[23],9.83 µM (active)
same,AC50,[24],7.16 µM (active)
COc1cc(CN(C(=O)c2ccco2)c2ccc(C)cc2)ccc1O,IC50,[25],> 64 µM (inactive)
same,IC50,Protein Tat,9.05 µM (inconclusive)
same,CC50,[11],> 40 µM (active)
CC(C)(C)NCc1cc(Br)ccc1OCc1cccs1,CC50,[26],> 40 µM (active)
N=c1oc2ccc(Cl)cc2cc1C(=O)NC1CCCCCC1,CC50,[26],24 µM (active)
Cc1ccc(S(=O)(=O)N[N-][C+]2CCC(C(C)(C)C)CC2)cc1[N+](=O)[O-],IC50,Fatty acid synthase [12],53 µM (inactive)
same,IC50,Fatty acid synthase [13],80 µM (inactive)
CCOC(=O)N1CCC(NC(=O)c2ccc(OC)c(CN3CC(=O)N4CCCC4C3=O)c2)CC1 (centres undefined),IC50,Protein Tat,> 100 µM (inconclusive)
CC(C)CC(=O)NC(=S)Nc1cccc2nsnc12,EC50,[20],1.81 µM (active)
same,EC50,[21],7.93 µM (active)
same,EC50,[22],2.92 µM (active)
CC(C)C[C@@]12C(=O)N(c3ccc(Br)cc3)C(=O)N1[C@H](c1ccc(Br)cc1)[C@@H]1C(=O)N(C(C)(C)C)C(=O)[C@@H]12,IC50,Fatty acid synthase [12],15.9 µM (active)
same,IC50,Fatty acid synthase [13],14.6 µM (active)
CO[C@H]1CN(C)C(=O)c2cc(NC(=O)c3ccc(-c4ccccc4)cc3)ccc2OC[C@@H](C)NC[C@H]1C,AC50,[9],5.5 µM (active)
same,AC50,[10],19.8 µM (active)
Cc1c(CCC(=O)O)c(=O)oc2cc3oc4c(c3cc12)CCCC4,IC50,[19],> 80 µM (inactive)
Nc1nc(-c2c[nH]c3ccccc23)cs1,EC50,[20],> 26.5 µM (inactive)
same,EC50,[21],> 79.4 µM (not active)
same,EC50,[22],24.2 µM (not active)
same,IC50,H9c2,> 79 µM (inactive)
C[C@H]1CN([C@@H](C)CO)C(=O)Cc2cc(NC(=O)Nc3cccc4ccccc34)ccc2O[C@H]1CN(C)Cc1ccc(C(=O)Nc2ccccc2N)cc1,AC50,[1],3.39 µM (active)
CC(C)Sc1ncnc2c1oc1ccccc12,EC50,[20],39.2 µM (inactive)
same,EC50,[21],> 79.4 µM (not active)
same,EC50,[22],26.2 µM (not active)
Cc1cccc(C)c1NC(=O)CCS(=O)(=O)c1cccc2nsnc12,IC50,Protein Tat,> 100 µM (active)
CC(C)(C)NC(=O)/C(=C/c1ccco1)c1ccccc1,IC50,Protein Tat,> 100 µM (inconclusive)
O=C(Nc1cccc(S(=O)(=O)Nc2ccc(Cl)cc2)c1)c1ccc(Cl)nc1,IC50,[19],49.5 µM (inactive)
same,AC50,INS1,3.31 µM (active)
same,AC50,[27],0.606 µM (active)
same,AC50,[28],2.63 µM (active)
same,AC50,[29],11.7 µM (active)
